Measured values published in publication PMC6273820, “Antimicrobial Activity and Stability of Short and Long Based Arachnid Synthetic Peptides in the Presence of Commercial Antibiotics” (Molecules, 2016).
≈ marks a conversion by molar mass, not a printed value. Like-named read-outs stand apart in the source and are kept apart here. Where no end group is shown, it is not given here.

Key:
[1] = tested on: Pseudomonas aeruginosa ATCC 27853; assay: microbe, parasite or virus in culture; assay type: cell-based; details: for MIC: Pseudomonas aeruginosa, read-out: Minimal Inhibitory Concentration, P. aureginosa
Protocol: (§1) It was determined using the broth microdilution assay in accordance with the procedures from the Clinical and Laboratory Standards Institute. For broth microdilution assays, pathogenic bacteria, such as Escherichia coli ATCC 25922, Staphylococcus aureus ATCC 25923, Pseudomonas aeruginosa ATCC 27853 and Klebsiella pneumoniae ST258, were cultured in Mueller-Hinton broth (MHB) at 37 °C until an end point between of 0.08 and 0.13 units of absorbance at 625 nm and diluted 1:100 in MHB (ca. […]). Fifty microliters of this bacterial suspension was dispensed into each well of a 96-well microtiter Costar® culture plates (Sigma Aldrich) having 50 µL of MHB containing a proper concentration of pure AMPs, antibiotics or the mixture of either of the AMPs with either of the antibiotics used. Dilutions of peptides and antibiotics were made manually with two-fold dilutions.
(§2) E. coli, S. aureus, P. aeruginosa and K. pneumoniae were grown in the presence of each of the four AMPs, and in the presence of each of the eight commercial antibiotics, which were Levofloxacin, Trimethoprim, Sulfamethoxazole, Azithromycin, Amoxicillin, Ceftriaxone, Gentamicin and Vancomycin, and in combinations of AMPs and the antibiotics. That is, the antimicrobial capacity of each AMP (50, 25, 12.5 and 6.2 µg/ mL) in combination with each antibiotic agent (50, 25, 12.5, 3.2, 1.6 and 0 µg/ mL) was measured as described above. For evaluation of the effect of the mixtures, the fractional inhibitory concentration (FIC) was calculated for each antibiotic in each combination. The following formulas were used to calculate the FIC index: FIC of AMP = MIC of AMP in combination with Antibiotic/MIC of AMP alone; FIC of Antibiotic = MIC of Antibiotic in combination with AMP/MIC of Antibiotic alone, and FIC index = FIC of AMP + FIC of Antibiotic. Synergy was defined as an FIC index of <0.5. Additive was defined as an FIC index of >0.5 but of <4, and finally antagonism was defined as an FIC index of >4.

[2] = tested on: Staphylococcus aureus ATCC 25923; assay: microbe, parasite or virus in culture; assay type: cell-based; details: for MIC: Staphylococcus aureus, read-out: Minimal Inhibitory Concentration, S. aureus
Protocol: as §1, §2

[3] = tested on: Klebsiella pneumoniae ST258; assay: microbe, parasite or virus in culture; assay type: cell-based; details: for MIC: Klebsiella pneumoniae, ST258, 18 h; for Minimal Inhibitory Concentration, K. pneumoniae: broth microdilution (CLSI), Mueller-Hinton broth, 18 h at 37 °C, A625nm, peptides n = 8
Protocol: as §1
as §2, with “That” for “E. coli, S. aureus, P. aeruginosa and K. pneumoniae were grown in the presence of each of the four AMPs, and in the presence of each of the eight commercial antibiotics, which were Levofloxacin, Trimethoprim, Sulfamethoxazole, Azithromycin, Amoxicillin, Ceftriaxone, Gentamicin and Vancomycin, and in combinations of AMPs and the antibiotics. That”

[4] = tested on: Escherichia coli ATCC 25922; assay: microbe, parasite or virus in culture; assay type: cell-based; details: for MIC: Escherichia coli, read-out: Minimal Inhibitory Concentration, E. coli
Protocol: as §1, with “dilutions. […]” for “dilutions.”

[5] = Stability in human blood plasma; assay type: in vitro ADME; details: 50 μg/mL; for Peptide found after incubation in human blood plasma: 12 h at 37 °C, extraction, reverse phase HPLC at 230 nm, ESI-MS; for Recovery after interaction with human plasma, first few minutes of dilution: extracted after the first few minutes of dilution, reverse phase HPLC
Protocol: (§3) The four synthetic peptides were subjected to incubation in human blood plasma or in the supernatant of S. aureus and P. aeruginosa growth. The AMPs were diluted in human blood plasma or in the supernatant of bacterial growth (50 μg/mL) and incubated at 37 °C for 12 h. After peptide extraction, the AMPs were separated by reverse phase HPLC using a C18 column (Vydac 218 TP54, Grace Co.) and a linear gradient of acetonitrile in 0.1% aqueous TFA from 0 to 60% in 60 min at a flow rate of 1 mL/min. Effluent absorbance was monitored at 230 nm. Peptide fractions were dried under vacuum, resuspended and analyzed by ESI-MS to confirm their molecular masses.

[6] = cited from earlier work
Description: Concerning AMPs, several physicochemical characteristics have been associated with the biological activity of them. Those that are relevant include hydrophobicity, the helical hydrophobic moment, as well as the size and the net charge of the peptide. However, no particular value relating to any of these characteristics was solely sufficient to correlate with the antimicrobial activity of the AMPs tested. In this case, however, the larger peptides FA1 and Pin2[G] were the AMPs that manifested optimum biological performance. Nevertheless, a fine balance in terms of physicochemical pr ...

[7] = Stability in supernatant of S. aureus growth; assay type: in vitro ADME, Staphylococcus aureus; details: 50 μg/mL, 12 h at 37 °C, extraction, reverse phase HPLC at 230 nm
Protocol: as §3

[8] = Stability in supernatant of P. aeruginosa growth; assay type: in vitro ADME, Pseudomonas aeruginosa; details: 50 μg/mL, 12 h at 37 °C, extraction, reverse phase HPLC at 230 nm
Protocol: as §3

[9] = ATCC27853, broth microdilution (CLSI), Mueller-Hinton broth, 18 h at 37 °C, A625nm, peptides n = 8
[10] = ATCC25923, broth microdilution (CLSI), Mueller-Hinton broth, 18 h at 37 °C, A625nm, peptides n = 8
[11] = read-out: Minimal Inhibitory Concentration, K. pneumoniae
[12] = dose-response in Muller-Hinton broth, Figure 3D
[13] = ATCC25922, broth microdilution (CLSI), Mueller-Hinton broth, 18 h at 37 °C, A625nm, peptides n = 8
[14] = broth microdilution (CLSI), Mueller-Hinton broth, 18 h at 37 °C, A625nm, peptides n = 8

Compound: CN[C@H](CC(C)C)C(=O)N[C@H]1C(=O)N[C@@H](CC(N)=O)C(=O)N[C@H]2C(=O)N[C@H]3C(=O)N[C@H](C(=O)N[C@H](C(=O)O)c4cc(O)cc(O)c4-c4cc3ccc4O)[C@H](O)c3ccc(c(Cl)c3)Oc3cc2cc(c3O[C@@H]2O[C@H](CO)[C@@H](O)[C@H](O)[C@H]2O[C@H]2C[C@](C)(N)[C@H](O)[C@H](C)O2)Oc2ccc(cc2Cl)[C@H]1O [Vancomycin]
- MIC [1, 9]: > 50 µg/mL
- Susceptibility of P. aeruginosa in words ([1]; dose-response in Muller-Hinton broth, Figure 3B): resistant
- MIC [2, 10]: 1.5 µg/mL
- MIC ([3]; read-out: Antibiotic (MIC)): > 50 µg/mL
- MIC [3, 11]: > 50 µg/mL
- Antibiotic concentration in whose presence K. pneumoniae could grow (up to) [3, 12]: up to 50 µg/mL
- MIC [4, 13]: > 50 µg/mL
- Susceptibility of E. coli in words ([4]; dose-response in Muller-Hinton broth, Figure 3C): resistance

Compound: CO/N=C(\C(=O)N[C@@H]1C(=O)N2C(C(=O)O)=C(CSc3nc(=O)c(=O)[nH]n3C)CS[C@H]12)c1csc(N)n1 [Ceftriaxone]
- MIC [1, 9]: 12.5 µg/mL
- MIC [2, 10]: 1.5 µg/mL
- MIC ([3]; read-out: Antibiotic (MIC)): > 50 µg/mL
- MIC [3, 11]: > 50 µg/mL
- Antibiotic concentration in whose presence K. pneumoniae could grow (up to) [3, 12]: up to 50 µg/mL
- MIC [4, 13]: 1.5 µg/mL (≈ 2.7 µM)

Compound: Cc1cc(NS(=O)(=O)c2ccc(N)cc2)no1 [Sulfamethoxazole]
- Susceptibility of P. aeruginosa in words [1]: resistant
- MIC ([1]; ATCC27853, 18 h): > 50 µg/mL
- Susceptibility of S. aureus in words [2]: resistance
- MIC ([2]; ATCC25923, 18 h): > 50 µg/mL
- MIC ([3]; read-out: Antibiotic (MIC)): > 50 µg/mL
- MIC [3, 11]: > 50 µg/mL
- Susceptibility of E. coli in words [4]: to some extent
- MIC ([4]; ATCC25922, 18 h): > 50 µg/mL

Compound: CC[C@H]1OC(=O)[C@H](C)[C@@H](O[C@H]2C[C@@](C)(OC)[C@@H](O)[C@H](C)O2)[C@H](C)[C@@H](O[C@@H]2O[C@H](C)C[C@H](N(C)C)[C@H]2O)[C@](C)(O)C[C@@H](C)CN(C)[C@H](C)[C@@H](O)[C@]1(C)O [Azithromycin]
- MIC [1, 9]: 12.5 µg/mL
- MIC [2, 10]: 3.1 µg/mL
- MIC ([3]; read-out: Antibiotic (MIC)): > 50 µg/mL
- MIC [3, 11]: > 50 µg/mL
- Antibiotic concentration in whose presence K. pneumoniae could grow (up to) [3, 12]: up to 50 µg/mL
- MIC [4, 13]: 1.5 µg/mL (≈ 2 µM)

Compound: FWGALAKGALKLIGSLFSSFSKKD [Pin2[G]]
- Peptide found after incubation in human blood plasma [5]: One quarter
- hemolytic activity [6]: 1.4 µM
- Stability in supernatants of S. aureus [7]: not cleaved
- Minimal Inhibitory Concentration, P. aureginosa [1, 14]: >50 µg/mL
- Minimal Inhibitory Concentration, S. aureus [2, 14]: 25 µg/mL
- Peptide (MIC) ([3]; peptide alone against K. pneumoniae, based on Figure 2): >50 µg/mL
- Stability in supernatants of P. aeruginosa [8]: not cleaved
- Minimal Inhibitory Concentration, E. coli [4, 14]: 50 µg/mL

Compound: FWGLKGLKKFSKKL [Pin2[14]]
- Peptide found after incubation in human blood plasma [5]: not found
- Recovery after interaction with human plasma, first few minutes of dilution [5]: none
- hemolytic activity [6]: 418 µM
- Stability in supernatants of S. aureus [7]: not cleaved
- Minimal Inhibitory Concentration, P. aureginosa [1, 14]: >50 µg/mL
- Minimal Inhibitory Concentration, S. aureus [2, 14]: >50 µg/mL
- Minimal Inhibitory Concentration, K. pneumoniae [3]: >50 µg/mL
- Minimal Inhibitory Concentration, E. coli [4, 14]: >50 µg/mL

Compound: COc1cc(Cc2cnc(N)nc2N)cc(OC)c1OC [Trimethoprim]
- Susceptibility of P. aeruginosa in words [1]: resistant
- MIC ([1]; ATCC27853, 18 h): > 50 µg/mL
- MIC ([2]; ATCC25923, 18 h): 1.5 µg/mL
- MIC ([3]; read-out: Antibiotic (MIC)): > 50 µg/mL
- MIC [3, 11]: > 50 µg/mL
- Antibiotic concentration in whose presence K. pneumoniae could grow (up to) [3, 12]: up to 50 µg/mL
- MIC ([4]; ATCC25922, 18 h): 1.5 µg/mL (≈ 5.17 µM)

Compound: C[C@H]1COc2c(N3CCN(C)CC3)c(F)cc3c(=O)c(C(=O)O)cn1c23 [Levofloxacin]
- MIC [1, 9]: 1.5 µg/mL
- MIC [2, 10]: 1.5 µg/mL
- MIC ([3]; read-out: Antibiotic (MIC)): 50 µg/mL
- MIC [3, 11]: 50 µg/mL
- Antibiotic concentration in whose presence K. pneumoniae could grow (up to) [3, 12]: up to 25 µg/mL
- MIC [4, 13]: 1.5 µg/mL (≈ 4.15 µM)

Compound: CNC(C)C1CCC(N)C(OC2C(N)CC(N)C(OC3OCC(C)(O)C(NC)C3O)C2O)O1 (stereo not shown) [Gentamicin]
- MIC [1, 9]: 1.5 µg/mL
- MIC [2, 10]: 1.5 µg/mL
- MIC [3, 11]: 12.5 µg/mL
- MIC ([3]; antibiotic alone against K. pneumoniae, based on Figure 3, read-out: Antibiotic (MIC)): 12.5 µg/mL
- Susceptibility of K. pneumoniae in words [3, 12]: susceptible
- MIC [4, 13]: 1.5 µg/mL (≈ 3.14 µM)

Compound: CC1(C)S[C@@H]2[C@H](NC(=O)[C@H](N)c3ccc(O)cc3)C(=O)N2[C@H]1C(=O)O [Amoxicillin]
- Susceptibility of P. aeruginosa in words [1]: resistant
- MIC ([1]; ATCC27853, 18 h): > 50 µg/mL
- MIC ([2]; ATCC25923, 18 h): 1.5 µg/mL
- MIC ([3]; read-out: Antibiotic (MIC)): > 50 µg/mL
- MIC [3, 11]: > 50 µg/mL
- Antibiotic concentration in whose presence K. pneumoniae could grow (up to) [3, 12]: up to 50 µg/mL
- MIC ([4]; ATCC25922, 18 h): 12.5 µg/mL (≈ 34.2 µM)

Compound: GILKTIKSIASKLKRKAK [P18K]
- Peptide found after incubation in human blood plasma [5]: neither was P18K obtained
- Recovery after interaction with human plasma, first few minutes of dilution [5]: none
- hemolytic activity [6]: 923 µM
- Stability in supernatants of S. aureus [7]: probably sequestered or cleaved
- Minimal Inhibitory Concentration, P. aureginosa [1, 14]: >50 µg/mL
- Minimal Inhibitory Concentration, S. aureus [2, 14]: >50 µg/mL
- Minimal Inhibitory Concentration, K. pneumoniae [3]: >50 µg/mL
- Stability in supernatants of P. aeruginosa [8]: probably sequestered or cleaved
- Minimal Inhibitory Concentration, E. coli [4, 14]: >50 µg/mL
